The text below walks through data of ChEMBL document CHEMBL5442334, “ASAP - In vitro safety pharmacology profile” (2024).

What is called inhibition is the change of the read-out against control, counted positive when it falls. As a reminder, the Inhibition is how much of the control response was suppressed. A low value points to little suppression.

Data set [1] has as its target D(1A) dopamine receptor (Homo sapiens) (UniProt P21728). The experiment in a line: SafetyScreen: D1 Human Dopamine GPCR Binding Antagonist Radioligand LeadHunter Assay, catalogue number: 44. The following applies: Test compound concentration 10.0 uM.
Data set [2] deals with Kappa-type opioid receptor (Homo sapiens) (UniProt P41145). The data set can be described thus: SafetyScreen: kappa (KOP) Human Opioid GPCR Binding Agonist Radioligand LeadHunter Assay, catalogue number: 4461. The settings on record: Test compound concentration 10.0 uM.
Data set [3] has as its target cGMP-inhibited 3',5'-cyclic phosphodiesterase 3A (Homo sapiens) (UniProt Q14432). The experiment in a line: SafetyScreen: PDE3A Human Phosphodiesterase Enzymatic LeadHunter Assay, catalogue number: 4072. In kind it is functional. The settings on record: Test compound concentration 10.0 uM.
The target in data set [4] is Beta-2 adrenergic receptor (Homo sapiens) (UniProt P07550). The data set can be described thus: SafetyScreen: beta2 Human Adrenoceptor GPCR Binding Antagonist Radioligand LeadHunter Assay, catalogue number: 20. The following applies: Test compound concentration 10.0 uM.
Data set [5] deals with Histamine H1 receptor (Homo sapiens) (UniProt P35367). The data set can be described thus: SafetyScreen: H1 Human Histamine GPCR Binding Antagonist Radioligand LeadHunter Assay, catalogue number: 870. The following applies: Test compound concentration 10.0 uM.
Data set [6] addresses Cannabinoid receptor 2 (Homo sapiens) (UniProt P34972). The data set can be described thus: SafetyScreen: CB2 Human Cannabinoid GPCR Binding Agonist Radioligand LeadHunter Assay, catalogue number: 37. The following applies: Test compound concentration 10.0 uM.
Data set [7] concerns the target D(2) dopamine receptor (Homo sapiens) (UniProt P14416). The experiment in a line: SafetyScreen: D2S Human Dopamine GPCR Binding Agonist Radioligand LeadHunter Assay, catalogue number: 1322. The settings on record: Test compound concentration 10.0 uM.
For data set [8], the target named is T1, 5-hydroxytryptamine receptor 3A (Homo sapiens) (UniProt P46098).
T1 sequence (whole entry): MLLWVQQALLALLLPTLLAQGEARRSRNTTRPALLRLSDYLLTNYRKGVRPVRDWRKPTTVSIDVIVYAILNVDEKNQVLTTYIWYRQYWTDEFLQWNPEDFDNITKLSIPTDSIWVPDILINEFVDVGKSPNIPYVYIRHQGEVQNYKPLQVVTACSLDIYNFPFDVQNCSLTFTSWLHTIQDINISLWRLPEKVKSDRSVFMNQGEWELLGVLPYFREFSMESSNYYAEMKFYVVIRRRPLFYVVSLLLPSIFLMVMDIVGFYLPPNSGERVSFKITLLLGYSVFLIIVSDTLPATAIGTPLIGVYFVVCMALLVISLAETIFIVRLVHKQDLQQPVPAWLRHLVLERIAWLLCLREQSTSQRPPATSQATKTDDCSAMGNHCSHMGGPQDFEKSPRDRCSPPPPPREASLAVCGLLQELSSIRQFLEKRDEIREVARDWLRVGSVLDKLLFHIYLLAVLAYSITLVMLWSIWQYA
The experiment in a line: SafetyScreen: 5-HT3 Human Serotonin Ion Channel Binding Antagonist Radioligand LeadHunter Assay, catalogue number: 411. The settings on record: Test compound concentration 10.0 uM.

Data set [9] addresses Adenosine receptor A2a (Homo sapiens) (UniProt P29274). The data set can be described thus: SafetyScreen: A2A Human Adenosine GPCR Binding Agonist Radioligand LeadHunter Assay, catalogue number: 4. The following applies: Test compound concentration 10.0 uM.
Data set [10] concerns the target T2, Endothelin-1 receptor (Homo sapiens) (UniProt P25101).
T2 sequence (whole entry): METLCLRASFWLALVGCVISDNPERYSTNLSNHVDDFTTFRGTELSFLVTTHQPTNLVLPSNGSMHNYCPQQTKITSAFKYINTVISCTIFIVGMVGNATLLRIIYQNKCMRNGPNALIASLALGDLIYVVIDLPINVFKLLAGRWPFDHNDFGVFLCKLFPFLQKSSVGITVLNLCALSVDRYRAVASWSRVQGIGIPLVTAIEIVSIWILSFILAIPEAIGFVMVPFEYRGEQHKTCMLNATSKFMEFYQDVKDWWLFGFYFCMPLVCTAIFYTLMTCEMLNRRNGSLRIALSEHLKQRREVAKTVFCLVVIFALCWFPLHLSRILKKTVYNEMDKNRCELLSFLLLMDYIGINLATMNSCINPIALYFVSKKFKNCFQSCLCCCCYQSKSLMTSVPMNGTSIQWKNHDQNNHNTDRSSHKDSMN
The data set can be described thus: SafetyScreen: ETA Human Endothelin GPCR Binding Agonist Radioligand LeadHunter Assay, catalogue number: 54. The following applies: Test compound concentration 10.0 uM.

Data set [11] addresses Tyrosine-protein kinase Lck (Homo sapiens) (UniProt P06239). The experiment in a line: SafetyScreen: Lck Human TK Kinase Enzymatic TR-FRET [Km ATP] LeadHunter Assay, catalogue number: 2906. Type of data set: functional. The settings on record: Test compound concentration 10.0 uM. In general terms: Time-resolved FRET reads energy transfer from a long-lived donor to a nearby acceptor.

The target of data set [12] is Voltage-gated inwardly rectifying potassium channel KCNH2 (Homo sapiens, UniProt Q12809). The data set can be described thus: SafetyScreen: hERG Human Potassium Ion Channel [3H] Dofetilide Binding Antagonist Radioligand SafetyScreen, catalogue number: 4094. The following applies: at 10 µM, test compound concentration 10 uM.
Data set [13] has as its target GABA-A receptor; anion channel (Rattus norvegicus) (UniProt O09028+P15431+P18506+P18508+P19969+P20236+P23574+P23576+P28471+P28473+P30191+P62813+P63079+P63138+Q91ZM7+Q9ES14). The experiment in a line: SafetyScreen: GABAA (Non-Selective) Rat Ion Channel [3H] Flunitrazepam Binding Agonist Radioligand LeadHunter Assay, catalogue number: 28. Type of data set: protein-complex assay. The settings on record: Test compound concentration 10.0 uM.

For data set [14], the target named is Sodium-dependent noradrenaline transporter (Homo sapiens) (UniProt P23975). The data set can be described thus: SafetyScreen: NET Human Norepinephrine Transporter Binding Antagonist Radioligand LeadHunter Assay, catalogue number: 355. The following applies: Test compound concentration 10.0 uM.
Data set [15] deals with T3, Muscarinic acetylcholine receptor M1 (Homo sapiens) (UniProt P11229).
T3 sequence (whole entry): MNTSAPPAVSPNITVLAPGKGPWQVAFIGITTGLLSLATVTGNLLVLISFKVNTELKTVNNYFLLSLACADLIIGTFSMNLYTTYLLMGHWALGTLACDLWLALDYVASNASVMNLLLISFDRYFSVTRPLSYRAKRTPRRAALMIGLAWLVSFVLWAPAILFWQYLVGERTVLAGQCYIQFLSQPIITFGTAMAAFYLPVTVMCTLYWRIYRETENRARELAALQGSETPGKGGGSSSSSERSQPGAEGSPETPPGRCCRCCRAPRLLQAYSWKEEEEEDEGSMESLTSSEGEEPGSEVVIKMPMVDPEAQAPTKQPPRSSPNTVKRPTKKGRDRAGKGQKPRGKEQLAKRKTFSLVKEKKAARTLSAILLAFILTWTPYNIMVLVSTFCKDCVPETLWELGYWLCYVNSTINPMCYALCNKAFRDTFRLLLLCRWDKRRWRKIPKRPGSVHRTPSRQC
The experiment in a line: SafetyScreen: M1 Human Acetylcholine (Muscarinic) GPCR Binding Antagonist Radioligand LeadHunter Assay, catalogue number: 91. The settings on record: Test compound concentration 10.0 uM.

Chain of Histamine H1 receptor (Homo sapiens) (P35367 whole entry): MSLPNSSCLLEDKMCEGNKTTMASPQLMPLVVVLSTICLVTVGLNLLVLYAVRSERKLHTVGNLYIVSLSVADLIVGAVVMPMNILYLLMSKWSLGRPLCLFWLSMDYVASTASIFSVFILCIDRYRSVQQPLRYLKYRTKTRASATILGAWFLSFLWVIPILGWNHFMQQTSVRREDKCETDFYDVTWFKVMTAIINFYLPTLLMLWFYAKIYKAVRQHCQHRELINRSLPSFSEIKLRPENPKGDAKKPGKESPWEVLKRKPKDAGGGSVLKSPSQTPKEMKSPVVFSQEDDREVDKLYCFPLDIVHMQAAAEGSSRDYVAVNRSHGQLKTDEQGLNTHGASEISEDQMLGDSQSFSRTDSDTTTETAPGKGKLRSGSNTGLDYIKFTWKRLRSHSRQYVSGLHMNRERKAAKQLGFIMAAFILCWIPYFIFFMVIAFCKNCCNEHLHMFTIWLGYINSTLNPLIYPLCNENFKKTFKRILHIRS
Chain of cGMP-inhibited 3',5'-cyclic phosphodiesterase 3A (Homo sapiens) (Q14432 whole entry): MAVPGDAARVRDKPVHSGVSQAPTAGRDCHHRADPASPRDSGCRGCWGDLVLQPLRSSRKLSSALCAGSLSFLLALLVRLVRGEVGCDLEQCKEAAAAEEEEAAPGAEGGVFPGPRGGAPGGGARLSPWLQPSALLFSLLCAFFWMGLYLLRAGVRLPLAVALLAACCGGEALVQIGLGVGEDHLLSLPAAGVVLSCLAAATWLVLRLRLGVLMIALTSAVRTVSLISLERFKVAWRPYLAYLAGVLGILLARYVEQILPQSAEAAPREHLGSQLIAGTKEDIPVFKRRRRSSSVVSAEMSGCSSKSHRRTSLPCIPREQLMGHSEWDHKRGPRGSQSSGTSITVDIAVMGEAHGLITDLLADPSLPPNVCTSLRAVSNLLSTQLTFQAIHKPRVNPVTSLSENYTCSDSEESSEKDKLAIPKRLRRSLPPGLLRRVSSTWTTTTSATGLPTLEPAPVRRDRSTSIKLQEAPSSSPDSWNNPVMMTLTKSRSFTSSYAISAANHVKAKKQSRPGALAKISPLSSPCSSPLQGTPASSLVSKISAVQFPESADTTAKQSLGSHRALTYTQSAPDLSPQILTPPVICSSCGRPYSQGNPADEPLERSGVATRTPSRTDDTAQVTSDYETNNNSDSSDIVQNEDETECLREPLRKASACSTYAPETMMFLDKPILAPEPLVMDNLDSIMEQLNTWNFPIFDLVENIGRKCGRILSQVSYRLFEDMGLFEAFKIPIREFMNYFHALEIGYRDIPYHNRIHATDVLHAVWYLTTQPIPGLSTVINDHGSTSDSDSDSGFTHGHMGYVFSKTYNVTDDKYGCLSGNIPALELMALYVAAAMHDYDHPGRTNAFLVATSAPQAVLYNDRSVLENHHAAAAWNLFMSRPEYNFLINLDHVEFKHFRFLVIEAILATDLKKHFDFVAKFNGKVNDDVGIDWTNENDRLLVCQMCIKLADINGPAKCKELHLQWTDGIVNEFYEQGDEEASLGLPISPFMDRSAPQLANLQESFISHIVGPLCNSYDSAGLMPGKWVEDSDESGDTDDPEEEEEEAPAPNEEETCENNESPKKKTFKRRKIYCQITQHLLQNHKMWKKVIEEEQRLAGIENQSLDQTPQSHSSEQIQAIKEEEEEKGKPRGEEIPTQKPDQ
Chain of Beta-2 adrenergic receptor (Homo sapiens) (P07550 whole entry, looked up): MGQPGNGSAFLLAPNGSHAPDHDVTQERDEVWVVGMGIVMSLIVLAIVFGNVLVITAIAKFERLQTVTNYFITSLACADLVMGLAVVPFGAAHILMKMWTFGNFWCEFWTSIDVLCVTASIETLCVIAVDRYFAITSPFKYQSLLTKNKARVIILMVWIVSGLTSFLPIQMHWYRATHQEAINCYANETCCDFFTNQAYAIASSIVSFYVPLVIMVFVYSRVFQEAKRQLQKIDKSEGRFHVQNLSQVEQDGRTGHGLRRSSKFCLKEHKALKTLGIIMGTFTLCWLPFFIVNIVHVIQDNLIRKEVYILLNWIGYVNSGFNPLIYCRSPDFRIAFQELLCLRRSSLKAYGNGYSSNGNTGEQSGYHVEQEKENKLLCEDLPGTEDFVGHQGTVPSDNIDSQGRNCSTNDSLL
Chain of Voltage-gated inwardly rectifying potassium channel KCNH2 (Q12809 whole entry): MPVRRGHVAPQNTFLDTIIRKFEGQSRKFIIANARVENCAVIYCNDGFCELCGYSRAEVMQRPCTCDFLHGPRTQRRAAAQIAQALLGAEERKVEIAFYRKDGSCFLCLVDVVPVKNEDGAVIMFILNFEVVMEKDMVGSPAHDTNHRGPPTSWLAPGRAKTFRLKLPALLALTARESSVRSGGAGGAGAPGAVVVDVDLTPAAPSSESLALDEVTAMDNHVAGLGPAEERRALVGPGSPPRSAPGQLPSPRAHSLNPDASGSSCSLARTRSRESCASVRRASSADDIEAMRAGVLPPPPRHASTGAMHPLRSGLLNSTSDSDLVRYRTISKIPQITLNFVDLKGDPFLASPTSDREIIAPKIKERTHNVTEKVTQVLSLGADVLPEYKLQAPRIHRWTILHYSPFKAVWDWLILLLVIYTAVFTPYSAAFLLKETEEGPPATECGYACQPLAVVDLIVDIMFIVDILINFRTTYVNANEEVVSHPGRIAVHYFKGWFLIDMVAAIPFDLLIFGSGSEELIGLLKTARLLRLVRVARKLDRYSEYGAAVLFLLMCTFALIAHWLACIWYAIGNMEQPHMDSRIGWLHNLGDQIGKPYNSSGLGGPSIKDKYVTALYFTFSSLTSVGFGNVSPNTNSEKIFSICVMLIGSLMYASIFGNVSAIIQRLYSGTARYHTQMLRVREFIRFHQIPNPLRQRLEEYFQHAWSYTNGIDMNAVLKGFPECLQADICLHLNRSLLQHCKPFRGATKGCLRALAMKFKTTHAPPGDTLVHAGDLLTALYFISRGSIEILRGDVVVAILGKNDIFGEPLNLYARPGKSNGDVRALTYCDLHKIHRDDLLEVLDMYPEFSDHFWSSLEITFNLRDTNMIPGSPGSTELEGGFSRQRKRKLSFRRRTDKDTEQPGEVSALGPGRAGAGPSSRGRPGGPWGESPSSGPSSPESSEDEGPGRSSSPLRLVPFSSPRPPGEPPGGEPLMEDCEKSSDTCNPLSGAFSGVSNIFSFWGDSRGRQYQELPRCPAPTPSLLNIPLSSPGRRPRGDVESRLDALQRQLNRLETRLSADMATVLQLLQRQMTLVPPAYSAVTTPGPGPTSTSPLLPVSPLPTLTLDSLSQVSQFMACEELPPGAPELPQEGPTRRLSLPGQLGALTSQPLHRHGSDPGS
Chain of D(2) dopamine receptor (Homo sapiens) (P14416 whole entry): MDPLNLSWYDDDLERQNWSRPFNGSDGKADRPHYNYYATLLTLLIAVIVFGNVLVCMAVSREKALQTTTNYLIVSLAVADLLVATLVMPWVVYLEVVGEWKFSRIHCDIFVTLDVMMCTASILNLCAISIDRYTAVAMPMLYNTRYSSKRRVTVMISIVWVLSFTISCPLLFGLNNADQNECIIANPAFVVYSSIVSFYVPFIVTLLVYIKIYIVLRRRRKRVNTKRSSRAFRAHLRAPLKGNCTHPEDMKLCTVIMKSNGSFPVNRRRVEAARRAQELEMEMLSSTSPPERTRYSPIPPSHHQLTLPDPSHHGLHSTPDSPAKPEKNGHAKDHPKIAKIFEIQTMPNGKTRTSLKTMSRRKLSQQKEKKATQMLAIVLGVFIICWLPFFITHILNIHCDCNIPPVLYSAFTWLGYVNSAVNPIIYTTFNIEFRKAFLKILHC
Chain of Tyrosine-protein kinase Lck (Homo sapiens) (P06239 2-509 limits assumed): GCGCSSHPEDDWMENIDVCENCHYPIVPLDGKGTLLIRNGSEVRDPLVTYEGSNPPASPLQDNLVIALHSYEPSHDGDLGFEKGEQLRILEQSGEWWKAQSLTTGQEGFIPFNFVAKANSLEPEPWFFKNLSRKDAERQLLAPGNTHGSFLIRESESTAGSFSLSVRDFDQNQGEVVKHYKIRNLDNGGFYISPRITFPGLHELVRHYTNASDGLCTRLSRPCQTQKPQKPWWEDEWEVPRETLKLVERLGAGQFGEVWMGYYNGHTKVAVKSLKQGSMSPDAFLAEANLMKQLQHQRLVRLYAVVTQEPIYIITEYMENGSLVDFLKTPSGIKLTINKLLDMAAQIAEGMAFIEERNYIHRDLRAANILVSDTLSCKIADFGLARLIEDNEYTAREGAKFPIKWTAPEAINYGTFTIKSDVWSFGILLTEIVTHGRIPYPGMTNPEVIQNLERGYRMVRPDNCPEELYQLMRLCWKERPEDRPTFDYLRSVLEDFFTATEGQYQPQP
Chain of Kappa-type opioid receptor (Homo sapiens) (P41145 whole entry): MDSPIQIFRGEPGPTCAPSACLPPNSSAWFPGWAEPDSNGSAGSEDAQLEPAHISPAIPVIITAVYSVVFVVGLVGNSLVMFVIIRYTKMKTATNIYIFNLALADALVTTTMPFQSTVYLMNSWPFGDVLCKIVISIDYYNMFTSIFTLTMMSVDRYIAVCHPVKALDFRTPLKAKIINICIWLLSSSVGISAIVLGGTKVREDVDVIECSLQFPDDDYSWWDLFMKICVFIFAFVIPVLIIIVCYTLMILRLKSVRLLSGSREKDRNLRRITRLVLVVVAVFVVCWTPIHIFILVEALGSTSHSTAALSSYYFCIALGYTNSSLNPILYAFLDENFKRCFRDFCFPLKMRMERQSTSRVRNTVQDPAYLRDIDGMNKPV
Chain of Cannabinoid receptor 2 (Homo sapiens) (P34972 whole entry): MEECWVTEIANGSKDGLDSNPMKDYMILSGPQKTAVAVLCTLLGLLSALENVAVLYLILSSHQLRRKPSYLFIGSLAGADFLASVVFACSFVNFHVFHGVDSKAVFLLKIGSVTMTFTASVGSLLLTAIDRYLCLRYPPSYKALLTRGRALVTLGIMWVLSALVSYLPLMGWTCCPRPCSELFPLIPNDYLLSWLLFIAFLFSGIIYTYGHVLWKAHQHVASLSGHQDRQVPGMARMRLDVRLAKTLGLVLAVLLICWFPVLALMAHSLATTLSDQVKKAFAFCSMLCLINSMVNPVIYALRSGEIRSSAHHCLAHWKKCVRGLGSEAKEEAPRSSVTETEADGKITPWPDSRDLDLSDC

In the case of `Cn1ncc(-c2cc3c(N[C@@H](c4ccc5c(n4)OCCO5)C(C)(C)C)ncnc3[nH]2)c1C#N`, the inhibition in data set [1] turned out to be 9%; in data set [2], 33%; in [3], 37%; in data set [4], 4%; in data set [5], 7%; in [6] it was 31%. Moreover, the inhibition in [7] was 13%; in data set [8] it was 3%; in data set [9] it was 52%; in data set [10] it was 9%; in data set [11] it was 47%; in data set [13], -5%. Moreover, the inhibition came out at 27% in data set [14] and 13% in data set [15]. The Inhibition in [12] stood at 36%.

`CC(C)[C@@H](Nc1ncnc2[nH]c(-c3cnn(C)c3C#N)cc12)c1ccc2c(n1)OCCO2`: the inhibition was 10% in [1]; 56% in [2]; 37% in [3]; 3% in [4]; 0% in [5]; 16% in [6]. Also, the inhibition in data set [7] was determined as 3%; in [8], 4%; in [9] it was 69%; in data set [10], 5%; in [11], 34%; in data set [13], 8%. Also, the inhibition in [14] came to 4%; in data set [15], 8%. For the same compound, the Inhibition in data set [12] came to 32%.

`CC(C)[C@@H](Nc1ncnc2[nH]c(C(=O)N[C@@H]3CCN(C)C3)cc12)c1ccc2c(c1)S(=O)(=O)CCC2`: the inhibition in [1] is -3%; in data set [2], 78%; in [3], 4%; in data set [4], -3%; in data set [5], 2%; in [6], -8%. In addition, the inhibition in data set [7] is -7%; in data set [8] it was 2%; in [9], -4%; in data set [10] it was -6%; in [11] it was 15%; in data set [13] it was 38%. Moreover, the inhibition was -1% in [14] and 17% in data set [15]. The compound further had an Inhibition in [12] of 7%.

On to `CC(C)[C@H](Nc1ncnc2[nH]c(-c3cnn(C)c3C#N)cc12)c1ccc2c(n1)OCCO2`, for which the inhibition stood at 27% in data set [1]; 31% in data set [2]; 37% in data set [3]; 3% in data set [4]; 5% in data set [5]; 44% in data set [6]. Further, the inhibition was -7% in data set [7]; 6% in data set [8]; 84% in [9]; 42% in data set [10]; 20% in data set [11]; -2% in data set [13]. Further, the inhibition in [14] turned out to be 9%; in [15], 7%. The Inhibition in data set [12] stood at 29%.
